# Source: patent US20210059997A1, “PROPHYLACTIC AGENT AND/OR THERAPEUTIC AGENT FOR CATARACT, MEDICINAL COMPOSITION FOR PREVENTING AND/OR TREATING CATARACT, USE OF PPAR ACTIVATOR FOR PRODUCING SAME, AND EYEDROPS” (UNIVERSITY OF FUKUI, priority 2017, published 2021)
# What was measured:
# Parameters in all cases: species or system SD rat
# [1] = tested on: in-vivo diabetic cataract models raised on galactose feed; assay: In vivo study: in-vivo diabetic cataract models raised on galactose feed, instillation to the eye; settings: for Percentage of opacity of crystalline lens, Left eye: instillation to left eye four times a day for 1 week, feed containing 25% galactose; for effect on the area of the opaque area of the crystalline lens in vivo (conclusion from Table 2): left eye versus DMSO right eye
# Description: In Example 3, effects of each agent were tested with use of in-vivo diabetic cataract models raised on galactose feed.
# For the purpose of inducing cataract, a 3-week-old SD rat (available from Sankyo Labo Service Corporation) was raised for 1 week on feed containing 25% galactose. Concurrently, during the feeding period, ophthalmic agents were administered by instillation to both eyes of the rat every day (four times a day). The components of the ophthalmic agents were as follows: dimethyl sulfoxide (DMSO; administered as a control) for the right eye; and DMSO containing a PPAR activator for the left eye. On the last day of the feeding period, the crystalline lenses were isolated from the right and left eyes of the rat, and observed by microscopy.
# The type of PPAR activator administered to the left eye and its concentration in Example 3 are as follows.
# The total area of the crystalline lens, the area of the opaque area of the crystalline lens, and the percentage of opacity of the crystalline lens were calculated in the same manner as described in Example 2.
# [2] = tested on: isolated crystalline lenses; assay: Quantitative ex vivo study: ex-vivo diabetic cataract models using galactose-containing media, percentage of opacity by image analysis; settings: for Percentage of opacity of crystalline lens, Day 6: Day 6 = 3 days after restart of culture with 30 mM galactose and PPAR activator; for Percentage of opacity of crystalline lens, Day 3: Day 3 = 3 days in 30 mM galactose medium, before addition of PPAR activator; for effect on the percentage of opacity of the crystalline lens (conclusion from Table 1): ex vivo, low concentration
# Description: In Example 2, effects of each agent were tested with use of ex-vivo diabetic cataract models using galactose-containing media, in a similar manner to Example 1.
# (§1) The crystalline lenses were isolated from the right and left eyeballs of a 6-week-old SD rat (available from Sankyo Labo Service Corporation).
# The isolated crystalline lenses were cultured with use of a medium obtained by adding 30 mM of galactose to an M199 medium (available from SIGMA). After that, the crystalline lenses were cultured with use of a medium obtained by adding 30 mM of galactose and a PPAR activator to an M199 medium.
# (§2) Specific points in time at which observation was carried out are as follows. Note that the crystalline lenses were cultured with use of an incubator, the internal temperature of which was maintained at 37° C.
# First, 3 days after the start of the culture of the crystalline lenses using the medium obtained by adding 30 mM of galactose to an M199 medium (available from SIGMA), the crystalline lenses were removed from the medium and observed by microscopy under a microscope SZX12 (available from Olympas).
# After the microscopy, a PPAR activator was added to the medium, and the culture of the crystalline lenses was restarted. 3 days after the restart of the culture, the crystalline lenses were removed from the medium and observed again by microscopy under the microscope SZX12 (available from Olympas). Note that, for the purpose of clarifying the effects of the PPAR activator, control crystalline lenses were cultured again using a medium having no PPAR activators added thereto.
# The images obtained by the microscopy were imported into image processing software (Image J), and the number of pixels was analyzed. In this way, the total area of the crystalline lens and the area of the opaque area were calculated. The percentage of opacity of the crystalline lens was calculated using the following equation.
# Percentage of opacity of crystalline lens (%)=100×{(area of opaque area of crystalline lens)/(total area of crystalline lens)}
# [3] = tested on: isolated crystalline lenses; assay: Ex vivo study: ex-vivo diabetic cataract models using galactose-containing media (microscopy); settings: 800 μM PPAR activator added after 3 days in 30 mM galactose M199 medium; observed 3 days after restart of culture (Day 6)
# Description: In Example 1, effects of each agent were tested with use of ex-vivo diabetic cataract models using galactose-containing media.
# as §1
# The isolated crystalline lenses were cultured with use of a medium obtained by adding 30 mM of galactose to an M199 medium (available from SIGMA). After that, the crystalline lenses were cultured with use of a medium obtained by adding 30 mM of galactose and 800 μM of a PPAR activator (specifically, bezafibrate or fenofibrate) to an M199 medium.
# as §2
# First, 3 days after the start of the culture of the crystalline lenses using the medium obtained by adding 30 mM of galactose to an M199 medium (available from SIGMA), the crystalline lenses were removed from the medium and observed by microscopy under a SZX12 microscope (available from Olympas).
# After the microscopy, a PPAR activator was added to the medium, and the culture of the crystalline lenses was restarted. […]
SMILES,"Percentage of opacity of crystalline lens, Day 6 ([2]; 25 μM) [%]","Percentage of opacity of crystalline lens, Day 6 ([2]; 100 μM) [%]","Percentage of opacity of crystalline lens, Day 3 ([2]; lens later given 25 μM) [%]","Percentage of opacity of crystalline lens, Day 3 ([2]; lens later given 100 μM) [%]","Percentage of opacity of crystalline lens, Left eye ([1]; 200 mM in DMSO) [%]",effect on the area of the opaque area of the crystalline lens in vivo (conclusion from Table 2) ([1]; 200 mM in DMSO),effect on the percentage of opacity of the crystalline lens (conclusion from Table 1) [2],also measured
"CC(C)(Oc1ccc(Cl)cc1)C(=O)OCCOC(=O)c1cccnc1 [Etofibrate, 2-[2-(4-chlorophenoxy)-2-methylpropanoyl]oxyethyl pyridine-3-carboxylate]",25.2,3.2,16.8,11.4,–,–,–,"Percentage of opacity of crystalline lens, Left eye ([1]; 140 mM in DMSO): 42.8%"
"CC(C)OC(=O)C(C)(C)Oc1ccc(C(=O)c2ccc(Cl)cc2)cc1 [Fenofibrate, propan-2-yl 2-[4-(4-chlorobenzoyl)phenoxy]-2-methylpropanoate]",–,–,–,–,–,–,–,effect on opacity of the cortex of the crystalline lens (microscopy) [3]: have the effect of therapeutic treatment of cataract after its development
"CN(CCOc1ccc(CC2SC(=O)NC2=O)cc1)c1ccccn1 (stereo not drawn) [Rosiglitazone, 5-[[4-[2-[methyl(pyridin-2-yl)amino]ethoxy]phenyl]methyl]-1,3-thiazolidine-2,4-dione]",–,–,–,–,30.6,have the effect of reducing the area of the opaque area of the crystalline lens in vivo,have the effect of reducing the percentage of opacity of the crystalline lens even when used at low concentration,"Percentage of opacity of crystalline lens, Day 6 ([2]; 20 μM): 20.9%; Percentage of opacity of crystalline lens, Day 6 ([2]; 80 μM): 2.2%; Percentage of opacity of crystalline lens, Day 3 ([2]; lens later given 20 μM): 22.8%; Percentage of opacity of crystalline lens, Day 3 ([2]; lens later given 80 μM): 15.6%"
"CC(C)(Oc1ccc(CCNC(=O)c2ccc(Cl)cc2)cc1)C(=O)O [Bezafibrate, 2-[4-[2-[(4-chlorobenzoyl)amino]ethyl]phenoxy]-2-methylpropanoic acid]",–,–,–,–,–,–,–,"effect on opacity of the cortex of the crystalline lens (microscopy) [3]: have the effect of therapeutic treatment of cataract after its development; Percentage of opacity of crystalline lens, Day 6 ([2]; 200 μM): 28.0%; Percentage of opacity of crystalline lens, Day 3 ([2]; lens later given 200 μM): 27.1%"
"CC(C)(Oc1ccc(C2CC2(Cl)Cl)cc1)C(=O)O (stereo not drawn) [Ciprofibrate, 2-[4-(2,2-dichlorocyclopropyl)phenoxy]-2-methylpropanoic acid]",15.7,2.0,17.5,16.7,30.2,have the effect of reducing the area of the opaque area of the crystalline lens in vivo,have the effect of reducing the percentage of opacity of the crystalline lens even when used at low concentration,–
"CCc1ccc(CCOc2ccc(CC3SC(=O)NC3=O)cc2)nc1 (stereo not drawn) [Pioglitazone, 5-[[4-[2-(5-ethylpyridin-2-yl)ethoxy]phenyl]methyl]-1,3-thiazolidine-2,4-dione]",–,–,–,–,44.2,did not show the effect of reducing the area of the opaque area of the crystalline lens in vivo,–,–
"Cc1ccc(C)c(OCCCC(C)(C)C(=O)O)c1 [Gemfibrozil, 5-(2,5-dimethylphenoxy)-2,2-dimethylpentanoicacid]",8.2,–,13.8,–,40.4,have the effect of reducing the area of the opaque area of the crystalline lens in vivo,have the effect of reducing the percentage of opacity of the crystalline lens even when used at low concentration,"Percentage of opacity of crystalline lens, Day 6 ([2]; 0.8 μM): 10.3%; Percentage of opacity of crystalline lens, Day 3 ([2]; lens later given 0.8 μM): 15.4%"
"CCOC(=O)C(C)(C)Oc1ccc(Cl)cc1 [Clofibrate, ethyl 2-(4-chlorophenoxy)-2-methylpropanoate]",27.3,5.7,9.7,7.6,–,–,–,–
